Experimental data from publication doi:10.1101/2024.06.05.597555v1 (biorxiv, 2024).
Like-named read-outs stand apart in the source and are kept apart here.

Experiments:
[1] = target: T1, NS2B(H)-NS3pro (DENV-2 NS2B-NS3 protease) (Dengue virus 2 Thailand/NGS-C/1944, UniProt P14340); assay: biochemical; conditions: read-out: % inhibition
T1 sequence (P14340 1394-1433 limits assumed): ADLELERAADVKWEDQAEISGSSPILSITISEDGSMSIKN
T1 sequence (P14340 1476-1660 limits assumed): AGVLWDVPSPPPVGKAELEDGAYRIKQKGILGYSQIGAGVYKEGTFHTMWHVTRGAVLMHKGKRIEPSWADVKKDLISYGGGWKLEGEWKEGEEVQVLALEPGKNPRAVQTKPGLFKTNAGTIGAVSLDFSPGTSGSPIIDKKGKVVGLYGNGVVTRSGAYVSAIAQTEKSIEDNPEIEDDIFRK

[2] = target: T1, NS2B(H)-NS3pro (DENV-2 NS2B-NS3 protease); conditions: read-out: IC50 (C7.5-HEPES AMC); AMC substrate, HEPES pH 7.5, CHAPS; inhibitor
[3] = target: T2, DENV2proHeLa NS2B-NS3 protease (Dengue virus 2 Thailand/16681/84, UniProt P29990); assay: cell-based; set-up: species or system DENV2proHeLa (HeLa); conditions: HeLa, read-out: % inhibition
T2 sequence (P29990 1476-2093 limits assumed): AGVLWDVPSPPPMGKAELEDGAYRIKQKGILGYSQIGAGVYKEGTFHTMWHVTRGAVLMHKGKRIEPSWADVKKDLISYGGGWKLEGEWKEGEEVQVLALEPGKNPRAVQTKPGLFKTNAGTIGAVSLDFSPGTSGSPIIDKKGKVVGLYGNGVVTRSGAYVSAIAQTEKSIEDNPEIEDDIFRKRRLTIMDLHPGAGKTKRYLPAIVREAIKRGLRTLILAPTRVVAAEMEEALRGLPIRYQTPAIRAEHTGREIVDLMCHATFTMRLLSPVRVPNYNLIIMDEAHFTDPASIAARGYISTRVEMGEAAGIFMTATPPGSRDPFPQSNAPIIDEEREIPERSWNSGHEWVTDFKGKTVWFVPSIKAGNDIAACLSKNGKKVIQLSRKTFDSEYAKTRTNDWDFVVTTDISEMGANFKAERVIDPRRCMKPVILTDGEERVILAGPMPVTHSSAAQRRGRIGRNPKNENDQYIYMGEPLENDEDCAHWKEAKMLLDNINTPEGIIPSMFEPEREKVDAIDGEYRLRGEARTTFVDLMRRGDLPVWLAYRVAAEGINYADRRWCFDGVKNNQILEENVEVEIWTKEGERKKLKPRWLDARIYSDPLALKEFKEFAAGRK
T2 sequence (P29990 1346-1475 partner limits assumed): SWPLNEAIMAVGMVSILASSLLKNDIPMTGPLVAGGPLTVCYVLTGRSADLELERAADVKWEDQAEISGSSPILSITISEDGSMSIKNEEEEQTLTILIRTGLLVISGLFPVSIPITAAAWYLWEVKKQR

[4] = target: T2, DENV2proHeLa NS2B-NS3 protease; assay: cell-based; set-up: species or system DENV2proHeLa (HeLa)
in vitro [5] = assay: in vitro; set-up: species or system DENV2proHeLa (HeLa); conditions: human, denv2prohela cells
[6] = target: T1, NS2B(H)-NS3pro (DENV-2 NS2B-NS3 protease); assay: fluorometric protease assay, AMC substrate; type: biochemical; conditions: read-out: % inhibition at 50 μM
[7] = target: T2, DENV2proHeLa NS2B-NS3 protease; assay: cell-based; set-up: species or system DENV2proHeLa (HeLa); conditions: HeLa, read-out: % inhibition; remark: listed apart in the source
[8] = target: T2, DENV2proHeLa NS2B-NS3 protease; assay: cell-based; set-up: species or system DENV2proHeLa (HeLa); conditions: read-out: DENV2proHeLa EC50; inhibitor
in vitro [9] = assay: in vitro; set-up: species or system DENV2proHeLa (HeLa); conditions: human, denv2prohela cells; remark: listed apart in the source
DENV-2 = assay: microbe, parasite or virus in culture; conditions: Dengue virus, DENV2, Vero, 48 h, read-out: % inhibition
[10] = target: T1, NS2B(H)-NS3pro (DENV-2 NS2B-NS3 protease); assay: biochemical; conditions: read-out: % inhibition; remark: listed apart in the source
[11] = target: T2, DENV2proHeLa NS2B-NS3 protease; assay: cell-based; set-up: species or system DENV2proHeLa (HeLa); conditions: HeLa, read-out: % inhibition; remark: listed apart in the source
in vitro [12] = assay: in vitro; set-up: species or system DENV2proHeLa (HeLa); conditions: human, denv2prohela cells; remark: listed apart in the source
[13] = target: T1, NS2B(H)-NS3pro (DENV-2 NS2B-NS3 protease); assay: fluorometric protease assay, AMC substrate; type: biochemical; conditions: pH 7.5, HEPES, CHAPS; substrate Bz-nKRR-AMC
[14] = target: T2, DENV2proHeLa NS2B-NS3 protease; assay: cell-based
[15] = target: T1, NS2B(H)-NS3pro (DENV-2 NS2B-NS3 protease); assay: biochemical; conditions: read-out: % inhibition; remark: listed apart in the source
[16] = target: T1, NS2B(H)-NS3pro (DENV-2 NS2B-NS3 protease); assay: biochemical; conditions: read-out: % inhibition; remark: listed apart in the source

## NC(=O)c1cccc(NC(=O)[C@@H](NC(=O)C2COc3ccccc3C2)c2ccc(OCc3ccccc3)cc2)c1 (stereo partly drawn) [compound 26, 26]
[1]
  inhibition at 50 µM: 88%
[2]
  IC50: 16 µM
[3]
  inhibition at 12.5 µM: 77%
[4]
  EC50: 6.8 µM
In vitro [5]
  CC50: > 50 µM

## COc1cc(CC(=O)N[C@H](C(=O)Nc2cccc(C(N)=O)c2)c2ccc(OCc3ccccc3)cc2)cc(OC)c1OC [compound 31]
[6]
  inhibition at 50 µM: 76%
[7]
  inhibition at 12.5 µM: 75%
[8]
  EC50: 12 µM
In vitro [9]
  CC50: > 50 µM
DENV-2
  inhibition at 25 µM: 11%

## CC(C(=O)NC(Cc1c[nH]c2ccccc12)C(=O)Nc1cccc(C(N)=O)c1)c1ccc2c(c1)[nH]c1ccc(Cl)cc12 (stereo not drawn) [compound 67, 67]
[10]
  inhibition at 50 µM: 91%
[11]
  inhibition at 12.5 µM: 91%
In vitro [12]
  CC50: 16 µM

## NC(=O)c1cccc(NC(=O)C(Cc2ccc(OCc3ccc4ccccc4c3)cc2)NC(=O)c2ccc(Oc3ccccc3)cc2)c1 (stereo not drawn) [compound 63]
[13]
  IC50: 4.8 µM
[14]
  EC50: 5.1 µM
[10]
  inhibition at 50 µM: 100%
[11]
  inhibition at 12.5 µM: 82%
In vitro [12]
  CC50: 16 µM

## NC(=O)c1cccc(NC(=O)C(Cc2c[nH]c3ccccc23)NC(=O)c2ccc(Oc3ccccc3)cc2)c1 (stereo not drawn) [compound 69, 69]
[10]
  inhibition at 50 µM: 80%
[11]
  inhibition at 12.5 µM: 65%
In vitro [12]
  CC50: > 50 µM

## CCCCC(CC)C(=O)N[C@H](C(=O)Nc1cccc(C(N)=O)c1)c1ccc(OCc2ccccc2)cc1 (stereo partly drawn) [compound 20, 20]
[2]
  IC50: 22 µM
[3]
  inhibition at 12.5 µM: 63%
[4]; read-out: DENV2proHeLa EC50, inhibitor
  EC50: 11 µM
In vitro [5]
  CC50: > 50 µM
DENV-2
  inhibition at 25 µM: 90%

## CCCCCC(=O)N[C@H](C(=O)Nc1cccc(C(N)=O)c1)c1ccc(OCc2ccccc2)cc1 [compound 2]
[6]
  inhibition at 50 µM: 64 ± 5.1%

## CCCCCC(=O)N[C@H](C(=O)NCc1ccc(NC(=N)N)cc1)c1ccc(OCc2ccccc2)cc1 [NK-189]
[15]
  inhibition at 50 µM: 97%
DENV-2
  inhibition at 25 µM: 21%
[16]
  inhibition at 50 µM: 95%
